Laboratory results taken from US10669272B2, “Substituted naphthyridinone compounds useful as T cell activators” (BRISTOL-MYERS SQUIBB COMPANY, priority 2018, dated 2020).
Read-outs that look alike come from different tables or passages of the source.

Experiments:
[1] = target: T1, human DGKζ (Homo sapiens, UniProt Q13574); assay: DGKζ LIPGLO assay (extruded liposome substrate), in vitro DGK inhibition; format: biochemical; details: read-out: DGKz LIPGLO IC50
T1 construct: TVMV protease cleavage site (C); Hexa-His (C); made in house; host or cells: Sf9 insect cells (baculovirus, Bac-to-Bac)
T1 sequence (Q13574 with tags, fused parts or gaps isoform Q13574-4): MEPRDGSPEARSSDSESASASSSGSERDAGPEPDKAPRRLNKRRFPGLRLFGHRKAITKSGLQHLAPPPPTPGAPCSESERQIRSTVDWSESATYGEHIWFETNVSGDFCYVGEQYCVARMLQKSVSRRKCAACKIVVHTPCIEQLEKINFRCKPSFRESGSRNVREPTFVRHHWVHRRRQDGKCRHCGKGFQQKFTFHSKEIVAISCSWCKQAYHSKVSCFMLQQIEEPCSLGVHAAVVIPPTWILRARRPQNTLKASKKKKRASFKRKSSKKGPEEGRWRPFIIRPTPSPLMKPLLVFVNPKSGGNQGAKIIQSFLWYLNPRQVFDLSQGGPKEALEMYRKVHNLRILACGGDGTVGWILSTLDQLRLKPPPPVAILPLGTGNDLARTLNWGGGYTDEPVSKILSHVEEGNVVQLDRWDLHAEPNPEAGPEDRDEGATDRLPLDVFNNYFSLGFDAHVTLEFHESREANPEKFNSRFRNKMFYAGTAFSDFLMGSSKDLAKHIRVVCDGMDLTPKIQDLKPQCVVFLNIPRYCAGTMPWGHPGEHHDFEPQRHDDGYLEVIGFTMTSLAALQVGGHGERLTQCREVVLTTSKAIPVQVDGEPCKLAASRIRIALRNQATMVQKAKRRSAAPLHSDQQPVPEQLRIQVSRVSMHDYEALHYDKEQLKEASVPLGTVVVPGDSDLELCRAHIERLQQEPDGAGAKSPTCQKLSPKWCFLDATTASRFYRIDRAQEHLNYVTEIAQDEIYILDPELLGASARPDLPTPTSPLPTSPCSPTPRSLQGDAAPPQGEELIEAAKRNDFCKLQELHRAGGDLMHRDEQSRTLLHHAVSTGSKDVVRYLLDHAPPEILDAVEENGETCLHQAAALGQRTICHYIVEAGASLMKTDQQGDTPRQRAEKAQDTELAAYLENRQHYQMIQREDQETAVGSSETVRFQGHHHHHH

[2] = test system: naïve human CD8 T cells; assay: Human CD8 T cells IFN-γ assay; format: cell-based; details: read-out: HuCD8 INFG Normalized EC50;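 also: Naïve human CD8 T cells stimulated with plate-bound anti-CD3 and soluble anti-CD28, IFN-γ in supernatant quantified by AlphaLISA and converted to pg/mL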
[3] = test system: Human venous whole blood; assay: Human whole blood IFN-γ assay; format: cell-based; details: human whole blood, read-out: INFg Whole Blood Normalized Agonist EC50;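 also: blood from healthy donors exposed to compound for 1 h before stimulation with anti-CD3 and anti-CD28 at 1 µg/mL each, IFN-γ quantified in supernatant by AlphaLISA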
[4] = target: T2, human DGKα (Homo sapiens, UniProt P23743); assay: DGKα LIPGLO assay (extruded liposome substrate), in vitro DGK inhibition; format: biochemical; details: read-out: DGKa LIPGLO IC50
T2 construct: TVMV protease cleavage site (C); Hexa-His (C); made in house; host or cells: Sf9 insect cells (baculovirus, Bac-to-Bac)
T2 sequence (P23743 with tags, fused parts or gaps): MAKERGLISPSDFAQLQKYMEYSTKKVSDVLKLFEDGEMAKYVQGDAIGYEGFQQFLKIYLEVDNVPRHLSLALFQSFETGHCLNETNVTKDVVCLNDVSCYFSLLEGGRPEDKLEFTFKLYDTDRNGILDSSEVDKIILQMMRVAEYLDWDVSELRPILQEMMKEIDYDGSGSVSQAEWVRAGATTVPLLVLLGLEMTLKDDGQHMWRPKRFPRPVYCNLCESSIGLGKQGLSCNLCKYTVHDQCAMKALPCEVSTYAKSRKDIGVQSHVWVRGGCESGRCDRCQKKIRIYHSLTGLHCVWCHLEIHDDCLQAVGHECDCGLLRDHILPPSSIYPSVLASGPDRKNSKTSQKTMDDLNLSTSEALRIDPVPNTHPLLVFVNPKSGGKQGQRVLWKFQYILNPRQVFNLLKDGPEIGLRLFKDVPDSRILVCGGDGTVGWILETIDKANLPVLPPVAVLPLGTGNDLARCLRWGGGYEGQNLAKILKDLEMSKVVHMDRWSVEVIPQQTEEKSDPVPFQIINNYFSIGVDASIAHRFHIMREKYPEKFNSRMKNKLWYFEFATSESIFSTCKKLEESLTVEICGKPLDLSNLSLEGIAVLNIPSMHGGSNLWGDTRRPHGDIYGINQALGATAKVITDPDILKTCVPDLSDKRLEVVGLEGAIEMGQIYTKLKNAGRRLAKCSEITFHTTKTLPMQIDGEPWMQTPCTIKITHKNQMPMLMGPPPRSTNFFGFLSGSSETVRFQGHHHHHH

[5] = Homo sapiens, T-cell, 20 h, naïve human CD8 T cells, anti-CD3 plus anti-CD28, 3 μM reference compound = 100% activation
[6] = Homo sapiens, 24 h, anti-CD3 plus anti-CD28, 24 hours, 3 μM reference compound = 100% activation
[7] = Homo sapiens, T-cell, 20 h, normalized to 3 μM reference compound with anti-CD3 plus anti-CD28 as 100% activation
[8] = Homo sapiens, 24 h, normalized to 3 μM reference compound with anti-CD3 plus anti-CD28 as 100% activation
[9] = anti-CD3 plus anti-CD28, 24 hours, 3 μM reference compound = 100% activation
[10] = normalized to 3 μM reference compound with anti-CD3 plus anti-CD28 as 100% activation

| Structure (SMILES) | IC50 ([1]; DGKζ liposome (LIPGLO) assay) [nM] | IC50 ([4]; DGKα liposome (LIPGLO) assay) [nM] | IC50 ([1]; liposome (LIPGLO) assay) [nM] | IC50 ([4]; liposome (LIPGLO) assay) [nM] | EC50 [2, 5] [nM] | EC50 [3, 6] [nM] | EC50 [2, 7] [nM] | EC50 [3, 8] [nM] | EC50 [3, 9] [nM] | EC50 [2, 10] [nM] | EC50 [3, 10] [nM] |
| --- | --- | --- | --- | --- | --- | --- | --- | --- | --- | --- | --- |
| C[C@@H]1CN(c2cc(=O)n(C)c3ccc(C#N)nc23)[C@@H](C)CN1Cc1cccc(F)c1 [Example 292, 8-[(2S,5R)-4-[(3-fluorophenyl)methyl]-2,5-dimethylpiperazin-1-yl]-5-methyl-6-oxo-5,6-dihydro-1,5-naphthyridine-2-carbonitrile] | – | – | 3000 | 280 | – | – | 1700 | 2200 | – | – | – |
| C[C@@H]1CN(c2cc(=O)n(C)c3ccc(C#N)nc23)[C@@H](C)CN1C(c1ccc(F)cc1)C1CCCCO1 (single isomer, unassigned) [Example 359] | – | – | 1100 | 280 | – | – | 38 | – | – | – | 660 |
| C[C@@H]1CN(c2cc(=O)n(C)c3ccc(C#N)nc23)[C@@H](C)CN1C(c1ccc(Cl)cc1)c1ccc(Cl)cn1 (single isomer, unassigned) [Example 201] | – | – | 790 | 450 | – | – | – | 500 | – | 31 | – |
| C[C@@H]1CN(c2cc(=O)n(C)c3ccc(C#N)nc23)[C@@H](C)CN1C(c1ccc(Cl)cc1)c1ccc(F)cn1 (single isomer, unassigned) [Example 192] | – | – | 1500 | 120 | – | – | – | – | – | 56 | 600 |
| [2H]C([2H])(c1c(F)cc(F)cc1F)N1C[C@H](C)N(c2cc(=O)n(C)c3ccc(C#N)nc23)C[C@H]1C [Example 430, 8-((2S,5R)-2,5-dimethyl-4-((2,4,6-trifluorophenyl)methyl-d2)piperazin-1-yl)-5-methyl-6-oxo-5,6-dihydro-1,5-naphthyridine-2-carbonitrile] | – | – | 2000 | 410 | – | – | 46 | 500 | – | – | – |
| COc1ccc(C(c2cccc(F)c2)N2C[C@H](C)N(c3cc(=O)n(C)c4ccc(C#N)nc34)C[C@H]2C)nc1 (single isomer, unassigned) [Example 687] | – | – | 730 | 1600 | – | – | 17 | – | – | – | 270 |
| C[C@@H]1CN(c2cc(=O)n(C)c3ccc(C#N)nc23)[C@@H](C)CN1C(c1ccc(F)cc1)c1nc(C2CC2)no1 (single isomer, unassigned) [Example 736] | 480 | 160 | – | – | 25 | 150 | – | – | – | – | – |
| CCc1cc(F)ccc1C(c1ccc(F)cc1)N1C[C@H](C)N(c2cc(=O)n(C)c3ccc(OC)nc23)C[C@H]1C (single isomer, unassigned) [Example 233] | – | – | 3600 | 27000 | – | – | – | 20000 | – | 10000 | – |
| C[C@@H]1CN(c2cc(=O)n(C)c3ccc(C#N)nc23)[C@@H](C)CN1Cc1ccc(OC(F)(F)F)cc1F [Example 243, 8-[(2S,5R)-4-{[2-fluoro-4-(trifluoromethoxy)phenyl]methyl}-2,5-dimethylpiperazin-1-yl]-5-methyl-6-oxo-5,6-dihydro-1,5-naphthyridine-2-carbonitrile] | – | – | 1900 | 290 | – | – | 160 | 1500 | – | – | – |
| COC[C@@H]1CN(c2cc(=O)n(C)c3ccc(C#N)nc23)[C@@H](C)CN1C(c1ccc(F)cc1)c1ccc(F)cc1 [Example 1155, 8-((2S,5S)-4-(bis(4-fluorophenyl)methyl)-5-(methoxymethyl)-2-methylpiperazin-1-yl)-5-methyl-6-oxo-5,6-dihydro-1,5-naphthyridine-2-carbonitrile] | – | – | 660 | 1800 | – | – | 3.5 | 860 | – | – | – |
| CC(C)[C@H]1CN(c2cc(=O)n(C)c3ccc(C#N)nc23)CCN1C(c1ccc(F)cc1)c1ccc(F)cc1 [Example 10, (S)-8-(4-(bis(4-fluorophenyl)methyl)-3-isopropylpiperazin-1-yl)-5-methyl-6-oxo-5,6-dihydro-1,5-naphthyridine-2-carbonitrile] | – | – | 5100 | 97000 | – | – | 150 | 5000 | – | – | – |
| C[C@@H]1CN(c2cc(=O)n(C)c3ccc(C#N)nc23)[C@@H](C)CN1Cc1ccccc1F [Example 287, 8-[(2S,5R)-4-[(2-fluorophenyl)methyl]-2,5-dimethylpiperazin-1-yl]-5-methyl-6-oxo-5,6-dihydro-1,5-naphthyridine-2-carbonitrile] | – | – | 1600 | 34 | – | – | 12000 | 7100 | – | – | – |
| Cc1nccc(C(c2ccc(F)cc2)N2C[C@H](C)N(c3cc(=O)n(C)c4ccc(C#N)nc34)C[C@H]2C)n1 (single isomer, unassigned) [Example 389] | – | – | 1100 | 2200 | – | – | 25 | – | – | – | 280 |
| C[C@@H]1CN(c2cc(=O)n(C)c3ccc(C#N)nc23)[C@@H](C)CN1C(c1ccccc1)c1ccccc1F (stereo partly drawn) [Example 285, 8-[(2S,5R)-4-[(2-fluorophenyl)(phenyl)methyl]-2,5-dimethylpiperazin-1-yl]-5-methyl-6-oxo-5,6-dihydro-1,5-naphthyridine-2-carbonitrile] | – | – | 680 | 270 | – | – | 150 | 1500 | – | – | – |

Further lines, with some results ahead:

| IC50 ([1]; DGKζ liposome (LIPGLO) assay) [nM] | IC50 ([4]; DGKα liposome (LIPGLO) assay) [nM] | IC50 ([1]; liposome (LIPGLO) assay) [nM] | IC50 ([4]; liposome (LIPGLO) assay) [nM] | Structure (SMILES) | EC50 [2, 5] [nM] | EC50 [3, 6] [nM] | EC50 [2, 7] [nM] | EC50 [3, 8] [nM] | EC50 [3, 9] [nM] | EC50 [2, 10] [nM] | EC50 [3, 10] [nM] |
| --- | --- | --- | --- | --- | --- | --- | --- | --- | --- | --- | --- |
| 2800 | 2000 | – | – | Cc1ccc(C(c2ccc(F)cn2)N2C[C@H](C)N(c3c(C#N)c(=O)n(C)c4ccc(C#N)nc34)C[C@H]2C)cc1 (some centres unmarked) [Example 833] | 320 | 680 | – | – | – | – | – |
| – | – | 300 | 940 | Cc1ccc(C(c2cccc(F)n2)N2C[C@H](C)N(c3cc(=O)n(C)c4ccc(C#N)nc34)C[C@H]2C)cc1 (stereo partly drawn) [Example 476, 8-((2S,5R)-4-((6-fluoropyridin-2-yl)(p-tolyl)methyl)-2,5-dimethylpiperazin-1-yl)-5-methyl-6-oxo-5,6-dihydro-1,5-naphthyridine-2-carbonitrile] | – | – | 160 | 630 | – | – | – |
| 380 | 52 | – | – | C[C@@H]1CN(c2c(C#N)c(=O)n(C)c3ccc(C#N)nc23)CCN1C(c1ccc(F)cc1)c1ccccn1 (single isomer, unassigned) [Example 918] | 130 | – | – | – | 380 | – | – |
| – | – | 2700 | 2800 | C[C@@H]1CN(c2cc(=O)n(C)c3ccc(C#N)nc23)[C@@H](C)CN1C(c1ccc(F)cc1)c1ccc(C(F)F)cc1 (single isomer, unassigned) [Example 667] | – | – | – | – | – | 27 | 850 |
| – | – | 490 | 110 | C[C@@H]1CN(c2cc(=O)n(C)c3ccc(C#N)nc23)[C@@H](C)CN1C(c1ccc(Cl)cc1)c1ccc(Cl)cn1 (single isomer, unassigned) [Example 202] | – | – | – | – | – | 8.3 | 380 |
| – | – | 700 | 1800 | CC(c1ccc(C(F)(F)F)cc1F)N1C[C@H](C)N(c2cc(=O)n(C)c3ccc(C#N)nc23)C[C@H]1C (single isomer, unassigned) [Example 434] | – | – | 5.7 | 600 | – | – | – |
| – | – | 530 | 660 | Cc1ccc(C(c2cccc(F)c2)N2C[C@H](C)N(c3cc(=O)n(C)c4ccc(C#N)nc34)C[C@H]2C)nc1 (single isomer, unassigned) [Example 215] | – | – | – | – | – | 33 | 2100 |
| – | – | 1100 | 220 | C[C@@H]1CN(c2cc(=O)n(C)c3ccc(C#N)nc23)[C@@H](C)CN1C(c1ccc(Cl)cc1)c1ncccc1F (single isomer, unassigned) [Example 190] | – | – | – | – | – | 170 | 700 |
| – | – | 280 | 49 | CC[C@H]1CN(C(c2ccc(F)cc2)c2ncccc2F)[C@H](CC)CN1c1cc(=O)n(C)c2ccc(C#N)nc12 (single isomer, unassigned) [Example 1037] | – | – | 14 | – | – | – | 130 |
| 2800 | 2500 | – | – | C[C@@H]1CN(c2c(C#N)c(=O)n(C)c3ccc(C#N)nc23)CCN1C(c1cccc(F)c1)c1ccc(F)cn1 (single isomer, unassigned) [Example 925] | 91 | – | – | – | 710 | – | – |
| – | – | 1800 | 140 | C[C@@H]1CN(c2cc(=O)n(C)c3ccc(C#N)nc23)[C@@H](C)CN1C(c1ccc(OC(F)(F)F)cc1)c1ccc(F)cn1 (mixture of isomers) [Example 462, 8-((2S,5R)-4-((5-fluoropyridin-2-yl)(4-(trifluoromethoxy)phenyl)methyl)-2,5-dimethylpiperazin-1-yl)-5-methyl-6-oxo-5,6-dihydro-1,5-naphthyridine-2-carbonitrile] | – | – | 20 | – | – | – | 450 |
| – | – | 220 | 1300 | Cc1cccc(C(c2ccc(F)cc2)N2C[C@H](C)N(c3cc(=O)n(C)c4ccc(C#N)nc34)C[C@H]2C)n1 (single isomer, unassigned) [Example 204] | – | – | – | – | – | 12 | 620 |
